Test: xn = mol fraction of the nth substance listed
Conditions: 101 kPa, Liquid; for speed of sound: Pulse-echo method

ClCCCCCCCl [1,6-dichlorohexane] + CCCCCCC
Conditions	mass density [kg/m3]	speed of sound [m/s]
292.49 K, x1 = 0.3004	–	1199.1
292.56 K, x1 = 0.6998	–	1276.9
292.79 K, x1 = 0.4999	–	1235
292.8 K, x1 = 0.8001	–	1297
292.8 K, x1 = 0.8957	–	1316.3
292.81 K, x1 = 0.1999	–	1181.6
292.81 K, x1 = 0.6004	–	1255
292.91 K, x1 = 0.4	–	1215.3
292.92 K, x1 = 0.1014	–	1167.6
293.01 K, x1 = 1	–	1337.8
293.15 K, x1 = 0.0998	722.22	–
293.15 K, x1 = 0.1999	760.97	–
293.15 K, x1 = 0.2998	799.74	–
293.15 K, x1 = 0.4001	838.66	–
293.15 K, x1 = 0.5001	877.38	–
293.15 K, x1 = 0.6002	916.12	–
293.15 K, x1 = 0.7	954.46	–
293.15 K, x1 = 0.8002	992.78	–
293.15 K, x1 = 0.9001	1030.7	–
293.15 K, x1 = 1	1068.33	–
298.15 K, x1 = 0.0998	717.96	–
298.15 K, x1 = 0.1999	756.72	–
298.15 K, x1 = 0.2998	795.42	–
298.15 K, x1 = 0.4001	834.33	–
298.15 K, x1 = 0.5001	873.04	–
298.15 K, x1 = 0.6002	911.75	–
298.15 K, x1 = 0.7	950.12	–
298.15 K, x1 = 0.8002	988.4	–
298.15 K, x1 = 0.9001	1026.11	–
298.15 K, x1 = 1	1063.61	–
298.16 K, x1 = 0.6998	–	1256.2
298.16 K, x1 = 0.8957	–	1297.1
298.17 K, x1 = 0.3004	–	1176.1
298.17 K, x1 = 0.4999	–	1214.5
298.18 K, x1 = 1	–	1319.7
298.2 K, x1 = 0.4	–	1195
298.2 K, x1 = 0.8001	–	1277.5
298.21 K, x1 = 0.1014	–	1145.5
298.21 K, x1 = 0.1999	–	1159.4
298.21 K, x1 = 0.6004	–	1235.2
303.14 K, x1 = 0.4999	–	1195.5
303.14 K, x1 = 0.6998	–	1237.9
303.14 K, x1 = 0.8957	–	1279.5
303.15 K, x1 = 0.0998	713.61	–
303.15 K, x1 = 0.1999	752.3	–
303.15 K, x1 = 0.2998	791	–
303.15 K, x1 = 0.3004	–	1156.1
303.15 K, x1 = 0.4001	830	–
303.15 K, x1 = 0.5001	868.59	–
303.15 K, x1 = 0.6002	907.23	–
303.15 K, x1 = 0.7	945.63	–
303.15 K, x1 = 0.8002	983.71	–
303.15 K, x1 = 0.9001	1021.49	–
303.15 K, x1 = 1	1058.87	1302.4
303.19 K, x1 = 0.4	–	1175.5
303.19 K, x1 = 0.8001	–	1259.6
303.2 K, x1 = 0.1014	–	1124.7
303.2 K, x1 = 0.1999	–	1138.9
303.2 K, x1 = 0.6004	–	1216.8
308.12 K, x1 = 0.6998	–	1219.8
308.12 K, x1 = 0.8957	–	1261.9
308.13 K, x1 = 0.3004	–	1136.2
308.13 K, x1 = 0.4999	–	1176.5
308.14 K, x1 = 1	–	1285
308.15 K, x1 = 0.0998	709.34	–
308.15 K, x1 = 0.1999	748.07	–
308.15 K, x1 = 0.2998	786.58	–
308.15 K, x1 = 0.4001	825.61	–
308.15 K, x1 = 0.5001	864.37	–
308.15 K, x1 = 0.6002	902.95	–
308.15 K, x1 = 0.7	941.1	–
308.15 K, x1 = 0.8002	979.09	–
308.15 K, x1 = 0.9001	1016.82	–
308.15 K, x1 = 1	1054.14	–
308.17 K, x1 = 0.4	–	1156.1
308.18 K, x1 = 0.1014	–	1104
308.18 K, x1 = 0.6004	–	1198.3
308.18 K, x1 = 0.8001	–	1241.7
308.19 K, x1 = 0.1999	–	1118.6
313.15 K, x1 = 0.0998	704.96	–
313.15 K, x1 = 0.1999	743.68	–
313.15 K, x1 = 0.2998	782.17	–
313.15 K, x1 = 0.4001	821.26	–
313.15 K, x1 = 0.5001	859.93	–
313.15 K, x1 = 0.6002	898.61	–
313.15 K, x1 = 0.7	936.7	–
313.15 K, x1 = 0.8002	974.58	–
313.15 K, x1 = 0.9001	1012.12	–
313.15 K, x1 = 1	1049.39	–
313.21 K, x1 = 0.3004	–	1116.2
313.21 K, x1 = 0.6998	–	1201.4
313.21 K, x1 = 0.8957	–	1244
313.22 K, x1 = 0.4999	–	1157.3
313.23 K, x1 = 1	–	1267.4
313.25 K, x1 = 0.1014	–	1082.9
313.26 K, x1 = 0.4	–	1136.5
313.26 K, x1 = 0.8001	–	1223.6
313.28 K, x1 = 0.1999	–	1098
313.28 K, x1 = 0.6004	–	1179.5

Reference: the NIST ThermoML archive (doi:10.1021/je100610v)
